From patent US20060281700A1, “SYNERGISTIC MODULATION OF FLT3 KINASE USING AMINOPYRIMIDINES KINASE MODULATORS” (priority 2005, published 2006)

How the values were obtained:
[1] = test system: cells that depend on FLT3 for growth; assay: Standard 72-hour cell proliferation assay, FLT3 dependent cell lines taken together; format: cell-based; settings: 72-hour proliferation; depending on the cell type
Method: The cell lines that were tested included those that are dependent on FLT3ITD mutant activity for growth (MV4-11 and Baf3-FLT3ITD), FLT3 wt activity for growth (Baf3FLT3) and those that grow independent of FLT3 activity (THP-1). […] Baf3-FLT3 and Baf3-FLT3ITD cell lines were obtained from Dr. Michael Henrich and the Oregon Health Sciences University. The Baf3 FLT3 cell lines were created by stable transfection of parental Baf3 cells (a murine B cell lymphoma line dependent on the cytokine IL-3 for growth) with either wild-type FLT3 or FLT3 containing the ITD insertion in the juxatamembrane domain of the receptor resulting in its constitutive activation. Cells were selected for their ability to grow in the absence of IL-3 and in either the presence of FLT3 ligand (Baf3-FLT3) or independent of any growth factor (Baf3-ITD). […]
Dose responses for the individual compounds alone were determined for each cell line using a standard 72-hour cell proliferation assay (see FIGS. 6.1-6.8). […]
Cell proliferation assay for MV4-11, Baf3-ITD, Baf3-FLT3 and THP-1 cells. […] Total cell growth is quantified as the difference in luminescent counts (relative light units, RLU) of cell number at Day 0 compared to total cell number at Day 3 (72 hours of growth and/or compound treatment). One hundred percent inhibition of growth is defined as an RLU equivalent to the Day 0 reading. […]

[2] = Tolerability in MV4-11 tumor-bearing nude mice (body weight, overt clinical signs); settings: either agent alone or in combination
Method: Female athymic nude mice weighing no less than 20-21 grams were inoculated subcutaneously in the left inguinal region of the thigh with 5×10^6 tumor cells in a delivery volume of 0.2 mL. For regression studies, the tumors were allowed to grow to a pre-determined size prior to initiation of dosing. […] Mice were dosed orally by gavage with vehicle (control group) or compound at various doses twice-daily (b.i.d.) during the week and once-daily (q.d.) on weekends. […] If tumors in the control mice reached ˜10% of body weight (˜2.0 grams), the study was to be terminated. […] During the study, tumor growth was measured three times-a-week (M, W, F) using electronic Vernier calipers. Tumor volume (mm^3) was calculated using the formula […], where L=length (mm) and W=width (shortest distance in mm) of the tumor. Body weight was measured three times-a-week and a loss of body weight >10% was used as an indication of lack of compound tolerability. […]
Female athymic nude mice weighing no less than 20-21 grams were inoculated subcutaneously in the left inguinal region of the thigh with 5×10^6 tumor cells in a delivery volume of 0.2 mL. For regression studies, the tumors were allowed to grow to a pre-determined size prior to initiation of dosing. […] During the study, tumor growth was measured three times-a-week (M, W, F) using electronic Vernier calipers. […]

Structure (SMILES): Cn1cncc1C(N)(c1ccc(Cl)cc1)c1ccc2c(c1)c(-c1cccc(Cl)c1)cc(=O)n2C (single isomer, unassigned; (+)) [Tipifarnib, (+)-6-[amino(4-chlorophenyl)(1-methyl-1H-imidazol-5-yl)methyl]-4-(3-chlorophenyl)-1-methyl-2(1H)-quinolinone]
- single agent potency for inhibition of proliferation [1]: high nanomolar to high picomolar range
- overt toxicity ([2]; 9-day treatment): No overt toxicity
- overt toxicity ([2]; 16-day treatment): No overt toxicity
